Reference: ChEMBL document CHEMBL2434914 (Bioorg Med Chem Lett, 2013)

Legend:
Histone deacetylase 2 = Histone deacetylase 2 (Homo sapiens, UniProt Q92769); experiment: Inhibition of HDAC2 (unknown origin) using MAZ1600 and MAZ1675 as substrate assessed as fluorogenic release of 7-amino-4-methylcoumarin from substrate by optimized homogenous assay
[1] = target: T1, Protein deacetylase HDAC6 (Homo sapiens, UniProt Q9UBN7); experiment: Inhibition of HDAC6 (unknown origin) using MAZ1600 and MAZ1675 as substrate assessed as fluorogenic release of 7-amino-4-methylcoumarin from substrate by optimized homogenous assay
T1 sequence (Q9UBN7 whole entry): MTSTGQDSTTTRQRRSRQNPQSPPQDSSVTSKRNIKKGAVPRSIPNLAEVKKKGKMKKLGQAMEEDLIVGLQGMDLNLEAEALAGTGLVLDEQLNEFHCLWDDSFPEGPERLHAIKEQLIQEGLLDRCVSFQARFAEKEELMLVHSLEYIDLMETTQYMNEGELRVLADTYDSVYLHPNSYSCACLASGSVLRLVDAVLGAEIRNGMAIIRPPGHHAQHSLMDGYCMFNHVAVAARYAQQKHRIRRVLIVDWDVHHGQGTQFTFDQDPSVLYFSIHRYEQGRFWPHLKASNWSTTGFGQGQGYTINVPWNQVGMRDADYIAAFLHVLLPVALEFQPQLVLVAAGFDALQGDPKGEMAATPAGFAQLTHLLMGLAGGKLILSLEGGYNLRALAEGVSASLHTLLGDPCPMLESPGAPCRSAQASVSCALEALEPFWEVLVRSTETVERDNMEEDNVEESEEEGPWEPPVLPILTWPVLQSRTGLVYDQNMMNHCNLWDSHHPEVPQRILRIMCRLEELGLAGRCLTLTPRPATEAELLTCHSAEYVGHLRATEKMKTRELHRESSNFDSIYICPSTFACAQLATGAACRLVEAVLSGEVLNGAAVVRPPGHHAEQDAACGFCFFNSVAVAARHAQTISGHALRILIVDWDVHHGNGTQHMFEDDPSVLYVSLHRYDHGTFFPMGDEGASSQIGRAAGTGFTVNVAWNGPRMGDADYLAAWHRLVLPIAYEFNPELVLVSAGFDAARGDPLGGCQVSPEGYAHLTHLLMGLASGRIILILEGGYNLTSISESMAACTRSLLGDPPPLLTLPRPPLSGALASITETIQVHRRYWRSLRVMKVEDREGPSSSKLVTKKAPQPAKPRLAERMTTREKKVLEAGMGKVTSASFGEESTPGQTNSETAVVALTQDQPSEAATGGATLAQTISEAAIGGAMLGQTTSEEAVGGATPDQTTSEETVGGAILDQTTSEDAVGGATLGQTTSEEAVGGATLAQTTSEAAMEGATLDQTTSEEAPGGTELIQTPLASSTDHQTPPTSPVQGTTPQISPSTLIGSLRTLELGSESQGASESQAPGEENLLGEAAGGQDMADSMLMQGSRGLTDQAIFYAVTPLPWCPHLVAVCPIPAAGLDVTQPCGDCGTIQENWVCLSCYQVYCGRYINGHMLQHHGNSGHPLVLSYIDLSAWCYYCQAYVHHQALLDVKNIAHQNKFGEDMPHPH

Histone deacetylase 3 = Histone deacetylase 3 (Homo sapiens, UniProt O15379); experiment: Inhibition of HDAC3 (unknown origin) using MAZ1600 and MAZ1675 as substrate assessed as fluorogenic release of 7-amino-4-methylcoumarin from substrate by optimized homogenous assay
Chain of Histone deacetylase 3 (O15379 whole entry): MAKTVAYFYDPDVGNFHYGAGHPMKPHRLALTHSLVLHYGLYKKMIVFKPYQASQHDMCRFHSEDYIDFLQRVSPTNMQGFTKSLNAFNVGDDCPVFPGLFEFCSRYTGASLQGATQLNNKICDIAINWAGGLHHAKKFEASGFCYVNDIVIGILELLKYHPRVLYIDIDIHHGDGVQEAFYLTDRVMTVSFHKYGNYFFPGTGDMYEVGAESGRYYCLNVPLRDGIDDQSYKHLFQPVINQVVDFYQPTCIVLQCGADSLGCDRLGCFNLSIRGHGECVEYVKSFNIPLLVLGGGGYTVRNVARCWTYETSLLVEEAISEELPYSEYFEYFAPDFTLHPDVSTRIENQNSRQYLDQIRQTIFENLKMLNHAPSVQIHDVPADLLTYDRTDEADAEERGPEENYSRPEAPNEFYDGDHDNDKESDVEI

Histone deacetylase 1 = Histone deacetylase 1 (Homo sapiens, UniProt Q13547); experiment: Inhibition of HDAC1 (unknown origin) using MAZ1600 and MAZ1675 as substrate assessed as fluorogenic release of 7-amino-4-methylcoumarin from substrate by optimized homogenous assay
Chain of Histone deacetylase 1 (Q13547 whole entry): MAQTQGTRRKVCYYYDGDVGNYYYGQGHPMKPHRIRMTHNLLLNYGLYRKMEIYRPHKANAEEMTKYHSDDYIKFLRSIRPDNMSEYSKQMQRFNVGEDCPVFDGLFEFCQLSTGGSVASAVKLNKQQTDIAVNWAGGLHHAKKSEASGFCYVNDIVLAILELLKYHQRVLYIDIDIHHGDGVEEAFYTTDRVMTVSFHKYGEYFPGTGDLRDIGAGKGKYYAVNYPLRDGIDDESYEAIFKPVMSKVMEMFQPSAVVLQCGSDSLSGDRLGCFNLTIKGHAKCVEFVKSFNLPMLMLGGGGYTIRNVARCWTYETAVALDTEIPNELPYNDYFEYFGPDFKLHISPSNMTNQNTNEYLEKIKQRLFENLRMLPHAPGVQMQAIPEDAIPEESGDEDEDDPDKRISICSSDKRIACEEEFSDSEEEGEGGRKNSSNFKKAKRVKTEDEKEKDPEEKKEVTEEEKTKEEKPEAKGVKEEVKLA

[2] = Cytotoxicity against human MM1S cells after 48 hrs by ATPlite assay; type: functional, cell-based; conditions: MM1.S
Histone deacetylase 7 = target: T2, Histone deacetylase 7 (Homo sapiens, UniProt Q8WUI4); experiment: Inhibition of HDAC7 (unknown origin) using MAZ1600 and MAZ1675 as substrate assessed as fluorogenic release of 7-amino-4-methylcoumarin from substrate by optimized homogenous assay
T2 sequence (Q8WUI4 whole entry): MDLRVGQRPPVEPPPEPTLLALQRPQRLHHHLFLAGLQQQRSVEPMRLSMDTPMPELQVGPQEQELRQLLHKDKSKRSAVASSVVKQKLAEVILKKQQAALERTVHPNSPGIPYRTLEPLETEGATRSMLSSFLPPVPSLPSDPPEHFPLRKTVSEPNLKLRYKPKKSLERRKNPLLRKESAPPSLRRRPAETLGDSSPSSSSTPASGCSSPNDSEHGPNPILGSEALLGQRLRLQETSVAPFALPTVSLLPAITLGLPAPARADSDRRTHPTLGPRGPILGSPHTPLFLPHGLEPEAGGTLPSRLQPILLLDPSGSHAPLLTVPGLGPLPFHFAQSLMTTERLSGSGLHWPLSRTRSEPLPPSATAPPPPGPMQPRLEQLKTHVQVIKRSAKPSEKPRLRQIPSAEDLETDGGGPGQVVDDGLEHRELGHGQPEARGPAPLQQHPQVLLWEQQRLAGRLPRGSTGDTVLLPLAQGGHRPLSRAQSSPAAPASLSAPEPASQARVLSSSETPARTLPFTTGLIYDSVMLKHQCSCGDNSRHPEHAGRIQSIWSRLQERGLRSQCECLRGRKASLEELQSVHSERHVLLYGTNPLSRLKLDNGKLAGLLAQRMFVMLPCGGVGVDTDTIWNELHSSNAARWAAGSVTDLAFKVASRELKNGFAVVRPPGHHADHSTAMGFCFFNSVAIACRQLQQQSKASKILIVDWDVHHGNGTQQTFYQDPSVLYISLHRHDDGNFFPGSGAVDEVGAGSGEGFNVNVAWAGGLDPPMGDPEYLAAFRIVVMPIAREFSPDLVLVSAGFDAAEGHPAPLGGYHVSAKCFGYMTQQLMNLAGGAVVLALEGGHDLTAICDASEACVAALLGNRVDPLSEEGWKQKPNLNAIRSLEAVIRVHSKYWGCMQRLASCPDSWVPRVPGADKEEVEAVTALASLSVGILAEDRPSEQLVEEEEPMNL

Histone deacetylase 8 = target: T3, Histone deacetylase 8 (Homo sapiens, UniProt Q9BY41); experiment: Inhibition of HDAC8 (unknown origin) using MAZ1600 and MAZ1675 as substrate assessed as fluorogenic release of 7-amino-4-methylcoumarin from substrate by optimized homogenous assay
T3 sequence (Q9BY41 whole entry): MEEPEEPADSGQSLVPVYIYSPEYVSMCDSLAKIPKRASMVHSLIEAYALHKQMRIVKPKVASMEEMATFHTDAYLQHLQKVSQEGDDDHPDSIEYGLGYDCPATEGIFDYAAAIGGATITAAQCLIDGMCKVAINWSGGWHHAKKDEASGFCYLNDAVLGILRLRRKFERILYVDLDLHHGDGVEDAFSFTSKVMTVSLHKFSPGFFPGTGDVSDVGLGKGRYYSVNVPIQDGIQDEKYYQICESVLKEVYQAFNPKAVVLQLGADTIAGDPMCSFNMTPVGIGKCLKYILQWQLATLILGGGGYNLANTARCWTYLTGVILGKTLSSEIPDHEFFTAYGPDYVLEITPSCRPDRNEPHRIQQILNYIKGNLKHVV

Chain of Histone deacetylase 2 (Q92769 whole entry): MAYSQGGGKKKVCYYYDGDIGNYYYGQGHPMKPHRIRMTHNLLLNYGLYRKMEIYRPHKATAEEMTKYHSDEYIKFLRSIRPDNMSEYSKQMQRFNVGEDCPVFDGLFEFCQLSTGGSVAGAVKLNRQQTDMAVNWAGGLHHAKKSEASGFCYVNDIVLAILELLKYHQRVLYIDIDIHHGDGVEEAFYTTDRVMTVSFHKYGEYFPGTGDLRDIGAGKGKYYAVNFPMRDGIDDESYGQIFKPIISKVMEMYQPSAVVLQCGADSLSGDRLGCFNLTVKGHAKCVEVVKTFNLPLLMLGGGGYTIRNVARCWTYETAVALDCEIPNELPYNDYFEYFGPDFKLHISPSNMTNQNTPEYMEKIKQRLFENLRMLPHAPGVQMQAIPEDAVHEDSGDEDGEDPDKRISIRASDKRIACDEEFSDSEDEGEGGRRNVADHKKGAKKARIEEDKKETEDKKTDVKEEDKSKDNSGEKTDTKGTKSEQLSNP

IC50 (Histone deacetylase 2) [nM] | IC50 [1] [nM] | IC50 (Histone deacetylase 3) [nM] | IC50 (Histone deacetylase 1) [nM] | IC50 (Histone deacetylase 7) [nM] | IC50 (Histone deacetylase 8) [nM] | SMILES | IC50 [2] [nM]
2100 | 1100 | 1900 | 950 | – | – | CCCCCCCC(=O)SCC/C=C/[C@@H]1CC(=O)NCc2nc(co2)C2=N[C@@](C)(CS2)C(=O)N[C@@H](C(C)C)C(=O)O1 | 120
20 | 98 | 7.2 | 4.4 | 960 | 1200 | CC(C)[C@@H]1NC(=O)[C@]2(C)CSC(=N2)c2coc(n2)CNC(=O)C[C@@H](/C=C/CCS)OC1=O | 6200

SMILES | IC50 (Histone deacetylase 2) [nM] | IC50 [1] [nM] | IC50 (Histone deacetylase 3) [nM] | IC50 (Histone deacetylase 1) [nM] | IC50 (Histone deacetylase 7) [nM] | IC50 (Histone deacetylase 8) [nM] | IC50 [2] [nM]
CC(C)[C@@H]1NC(=O)[C@]2(C)CSC(=N2)c2coc(n2)CNC(=O)C[C@@H](/C=C/CCSSCC/C=C/[C@@H]2CC(=O)NCc3nc(co3)C3=N[C@@](C)(CS3)C(=O)N[C@@H](C(C)C)C(=O)O2)OC1=O | 1300 | 50 | 550 | 150 | – | – | 910
